Active and inactive are the calls of the source. The rule behind the calls is not given here.
What was measured:
[1] = biological target: Epidermal growth factor receptor (Homo sapiens) (UniProt P00533); test: Inhibition of EGFR in human SW480 cells assessed as reduction in MEK1/2 phosphorylation level at 0.5 to 2 uM incubated for 24 hrs by Western blotting analysis; type: cell-based; conditions: dose 0.5-2 µM
[2] = biological target: Epidermal growth factor receptor (Homo sapiens) (UniProt P00533); test: Inhibition of EGFR in human HT-29 cells at 2 uM by Western blot analysis; type: cell-based; conditions: time 3-15 hrs, TDE = time-dependent effect
HT-29 [3] = test: Inhibition of HER2 in human HT-29 cells xenografted in BALB/c nude mouse assessed as reduction in HER2 protein expression level at 2.5 mg/kg/day, ip administrated for every other day and measured after 28 days by immunohistochemistry staining based analysis; type: functional, organism-based; conditions: time 28.0 day
[4] = biological target: Epidermal growth factor receptor (Homo sapiens) (UniProt P00533); test: Inhibition of EGFR in human SW480 cells assessed as reduction in Erk1/2 phosphorylation level at 0.5 to 2 uM incubated for 24 hrs by Western blotting analysis; type: cell-based; conditions: dose 0.5-2 µM
HT-29 [5] = test: Inhibition of colony formation in EGFR knockdown human HT-29 cells at 0.75 uM incubated for 14 days by crystal violet staining based colony formation assay; type: functional, cell-based; conditions: time 14.0 day
HT-29 [6] = test: Antitumor activity against human HT-29 cells xenografted Balb/c mouse assessed as reduction in tumor cell density at 2.5 mg/kg/day, ip administrated for every other day and measured after 28 days by Hematoxylin and Eosin staining based method; type: functional, organism-based; conditions: time 28.0 day
[7] = Toxicity in human HT-29 cells xenografted Balb/c mouse assessed as change in heart pathology at 2.5 mg/kg/day, ip administrated for every other day and measured after 28 days; type: organism-based; conditions: in vivo, 672 h, time 28 day
HT-29 [8] = test: Inhibition of colony formation in EGFR knockdown human HT-29 cells at 6 uM incubated for 14 days by crystal violet staining based colony formation assay; type: functional, cell-based; conditions: time 14.0 day
[9] = Toxicity in human HT-29 cells xenografted Balb/c mouse assessed as change in spleen pathology at 5 mg/kg/day, ip administrated for every other day and measured after 28 days; type: organism-based; conditions: in vivo, 672 h, time 28 day
[10] = biological target: Epidermal growth factor receptor (Homo sapiens) (UniProt P00533); test: Inhibition of EGFR in human HT-29 cells at 15 uM by Western blot analysis; type: cell-based; conditions: time 3-15 hrs, TDE = time-dependent effect
HT-29 [11] = test: Antitumor activity against human HT-29 cells xenografted Balb/c mouse assessed as reduction in Ki67 expression level at 5 mg/kg/day, ip administrated for every other day and measured after 28 days by immunohistochemistry staining method; type: functional, organism-based; conditions: time 28.0 day
SW480 = test: Inhibition of colony formation in human SW480 cells at 6 uM incubated for 14 days by crystal violet staining based colony formation assay; type: functional, cell-based; conditions: time 14.0 day
HCT-116 = test: Inhibition of colony formation in human HCT-116 cells at 6 uM incubated for 14 days by crystal violet staining based colony formation assay; type: functional, cell-based; conditions: time 14.0 day
LoVo = test: Inhibition of colony formation in human LoVo cells at 6 uM incubated for 14 days by crystal violet staining based colony formation assay; type: functional, cell-based; conditions: time 14.0 day
[12] = biological target: Epidermal growth factor receptor (Homo sapiens) (UniProt P00533); test: Inhibition of EGFR in human HT-29 cells assessed as reduction in STAT3 phosphorylation level at 3.75 to 15 uM incubated for 24 hrs by Western blot analysis; type: cell-based; conditions: dose 3.75-15 µM
[13] = Toxicity in human HT-29 cells xenografted Balb/c mouse assessed as change in kidney pathology at 5 mg/kg/day, ip administrated for every other day and measured after 28 days; type: organism-based; conditions: in vivo, 672 h, time 28 day
[14] = Toxicity in human HT-29 cells xenografted Balb/c mouse assessed as change in lung pathology at 5 mg/kg/day, ip administrated for every other day and measured after 28 days; type: organism-based; conditions: in vivo, 672 h, time 28 day

Sequence of Epidermal growth factor receptor (Homo sapiens) (P00533 whole entry): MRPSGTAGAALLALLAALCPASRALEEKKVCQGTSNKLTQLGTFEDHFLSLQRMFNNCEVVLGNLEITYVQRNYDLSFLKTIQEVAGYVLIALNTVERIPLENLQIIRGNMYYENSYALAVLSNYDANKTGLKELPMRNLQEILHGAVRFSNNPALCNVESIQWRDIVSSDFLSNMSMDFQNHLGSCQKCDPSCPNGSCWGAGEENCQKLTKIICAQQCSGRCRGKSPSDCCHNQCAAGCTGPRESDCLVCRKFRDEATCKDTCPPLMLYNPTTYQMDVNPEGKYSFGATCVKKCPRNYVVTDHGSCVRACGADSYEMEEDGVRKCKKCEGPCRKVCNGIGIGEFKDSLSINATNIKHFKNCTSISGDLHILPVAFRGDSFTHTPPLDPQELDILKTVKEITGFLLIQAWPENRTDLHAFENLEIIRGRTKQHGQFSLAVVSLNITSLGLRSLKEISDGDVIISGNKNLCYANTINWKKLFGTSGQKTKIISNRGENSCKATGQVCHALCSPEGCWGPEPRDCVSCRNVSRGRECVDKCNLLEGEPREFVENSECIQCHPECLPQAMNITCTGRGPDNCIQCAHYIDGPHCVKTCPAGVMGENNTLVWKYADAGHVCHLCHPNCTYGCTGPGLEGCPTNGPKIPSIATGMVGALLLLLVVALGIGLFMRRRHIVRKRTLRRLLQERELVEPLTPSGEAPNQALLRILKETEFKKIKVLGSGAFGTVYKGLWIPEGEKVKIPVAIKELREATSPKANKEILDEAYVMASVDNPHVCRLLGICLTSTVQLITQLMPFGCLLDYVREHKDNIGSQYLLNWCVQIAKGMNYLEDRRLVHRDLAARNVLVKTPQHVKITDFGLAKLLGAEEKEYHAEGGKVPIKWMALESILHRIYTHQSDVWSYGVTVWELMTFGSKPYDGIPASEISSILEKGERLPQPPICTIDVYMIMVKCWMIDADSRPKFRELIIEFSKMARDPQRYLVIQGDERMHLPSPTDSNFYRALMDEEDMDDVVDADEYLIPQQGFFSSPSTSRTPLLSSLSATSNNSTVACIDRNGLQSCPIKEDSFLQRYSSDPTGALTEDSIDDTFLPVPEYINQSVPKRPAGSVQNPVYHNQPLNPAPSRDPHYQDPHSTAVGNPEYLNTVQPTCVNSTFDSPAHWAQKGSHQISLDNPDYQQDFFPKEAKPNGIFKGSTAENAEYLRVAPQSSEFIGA

inhibition [1]	inhibition [2]	inhibition [4]	Compound	inhibition (HT-29 [3])	Activity (HT-29 [5])	Activity (HT-29 [6])	Activity [7]	Activity (HT-29 [8])	Activity [9]	inhibition [10]	Activity (HT-29 [11])	inhibition (SW480)	inhibition (HCT-116)	inhibition (LoVo)	inhibition [12]	Activity [13]	Activity [14]
Active	Tde	Active	CC[C@H]1CCC[C@H](O[C@H]2CC[C@H](N(C)CC(O)CN3CCNCC3)[C@@H](C)O2)[C@@H](C)C(=O)C2=C[C@@H]3[C@@H](C=C[C@@H]4C[C@@H](O[C@@H]5O[C@@H](C)[C@H](OC)[C@@H](OC)[C@H]5OC)C[C@@H]34)[C@@H]2CC(=O)O1 (some centres not stated)	Active	inactive	Active	Non-Toxic	–	–	–	–	–	–	–	–	–	–
–	–	–	CC[C@H]1CCC[C@H](O[C@H]2CC[C@H](N(C)C)[C@@H](C)O2)[C@@H](C)C(=O)C2=C[C@@H]3[C@@H](C=C[C@@H]4C[C@@H](O[C@@H]5O[C@@H](C)[C@H](OC)[C@@H](OC)[C@H]5OC)C[C@@H]34)[C@@H]2CC(=O)O1 [SPINOSYN A]	–	–	–	–	inactive	Non-Toxic	Tde	Active	Active	Active	Active	Active	Non-Toxic	Non-Toxic

— ChEMBL document CHEMBL5390209, “Spinosyn A and Its Derivative Inhibit Colorectal Cancer Cell Growth via the EGFR Pathway” (J Nat Prod, 2023)
